The source of these data is patent US20050009007A1 (priority 2003, published 2005).

In this test the test system is giant synaptic terminal of depolarizing bipolar cells from the goldfish retina. Type of test: cell-based. Particulars: n=7.

SMILES strings stand for the structures.

In the case of `O=C(O)CN(CC(=O)O)c1ccccc1OCCOc1ccccc1N(CC(=O)O)CC(=O)O` [BAPTA], the “increase in area of the footprint triggered by depolarization” value was “completely blocked”.
